Reference: patent publication US20220265626A1, “THE SERPINB3 INHIBITOR PIPERIDINPROPIONIC ACID FOR TUMOR TREATMENT” (UNIVERSITA' DEGLI STUDI DI PADOVA, priority 2019, published 2022)

Legend:
[1] = system: HepG2/SB3 and HepG2/CTR cells; test: Cell viability by MTT assay with antitumor drugs in the absence or presence of PPA; format: cell-based; details: for Resistance/sensitivity to drug-induced cell death, HepG2/SB3 compared with HepG2/CTR: drug 10 μM, without PPA
Procedure: The SeprinB3 molecule is known to induce resistance to chemotherapy treatment. In order to evaluate whether the inhibition of said molecule is able to increase the therapeutic efficacy of antitumor drugs, HepG2 cells stably transfected to overexpress SerpinB3 (HepG2/SB3) and HepG2 cells transfected with only the empty plasmid (HepG2/CTR) have been incubated with several antitumor drugs at a concentration of 10 μM (Cisplatin, Sorafenib, 5-Fluorouracil, Methotrexate) in the absence or presence of PPA. […] The results are expressed as a percentage of viability compared to cells incubated with only medium (CTR).

[2] = system: HepG2 liver tumor derived cells (HB8065); test: Real-time cell proliferation / cellular toxicity (xCELLigence, Normalized Cell Index); format: cell-based; details: monitored for over 60 hours
Procedure: HepG2 liver tumor derived cells (HB8065), incubated with increasing concentrations of 1′-Piperidin propionic acid (PPA) in a range of 5 -50 μg/ml were used and real-time cell proliferation was analysed, using xCELLigence instrument (ACEA Biosciences, Inc., San Diego, Calif., USA), according to the supplier's instructions. In each well of an E-16 plate, 4×10^4 HepG2 cells (HB8065) were seeded in quadruplicate, cultured in complete MEM medium (Sigma-Aldrich, Milan, Italy) supplemented with 10% fetal calf serum (Sigma-Aldrich, Milan, Italy), 100 U/mL of penicillin, 100 μg/ml of streptomycin, and 20 mM L-glutamine (Sigma-Aldrich, Milan, Italy) and 1% of MEM Non Essential Amino Acids. The cells were kept in an incubator at 37° C. with 95% humidity and 5% CO2 saturation. The complete medium was used as a control. The RTCA system monitored the electrical impedance, which is directly proportional to the number of cells present per well, indicated as Cell Index every 5 min for over 60 hours. The cell proliferation curves were analysed with the RTCA software and expressed as the Normalized Cell Index at the time of the treatment with PPA, an arbitrary unit corresponding to the number of cells present per well.
It should be noted that said concentration (5 μg/ml) is markedly higher than the biologically active PPA concentrations, whose normal range of use was 10-100 ng/ml.

SerpinB3 = SerpinB3 mRNA expression by real-time PCR (induced by exogenous SerpinB3 in THP-1 and HT29; constitutive in OE33 and HepG2/SB3); format: cell-based
Procedure: PPA was added in culture at a concentration of 1-100 ng/ml alone or in combination with recombinant SerpinB3 (SB3) at a concentration of 20-200 ng/ml to the cells, while only culture medium was added to the control wells. After 24 hours of treatment, the cells were collected by scraper and the extraction of total cell RNA and reverse transcription were performed according to standard protocols. SerpinB3 mRNA levels were measured by real-time PCR (sense: 5′-[…]-3′ (SEQ ID NO:1); reverse 5′-[…]-3′ (SEQ ID NO:2)).
They were seeded in 6-well plates and kept for 24 hours before treatment, each in its own complete culture medium in (Sigma-Aldrich, Milan, Italy). PPA (1′-piperidin propionic acid) was then added at a concentration of 10-100 ng/ml in PBS.
It should be noted that concentrations of 1-10 ng/ml are already able to reduce the synthesis of SerpinB3 by about 50%.

[3] = system: THP-1 cells of monocytic origin; test: Real-time proliferation of THP-1 cells stimulated with exogenous SerpinB3 (xCELLigence); format: cell-based; details: THP-1 cells with exogenous SerpinB3 20 ng/ml, PPA 1 ng/ml, 10 ng/ml, 10 μg/ml, up to 120 hours
Procedure: To evaluate cell proliferation in real time, the xCELLigence instrument (ACEA Biosciences, Inc., San Diego, Calif., USA) was used, as described in Example 1. THP-1 cells of monocytic origin were used, whose incubation with exogenous recombinant SerpinB3 (20 ng/ml) had induced a marked increase in the synthesis of endogenous SerpinB3, as reported in Example 2. A suspension of […] cells in quadruplicate was seeded in each well of an E-16 plate, cultured in complete RPMI medium (Sigma-Aldrich, Milan, Italy). The cells incubated with SerpinB3 alone or in the presence of PPA (1 ng/ml-10ng/ml-10 μg/ml) were monitored for up to 120 hours by the xCELLigence instrument and the cell proliferation curves shown in FIG. 3 were processed and expressed by the RTCA software as the Normalized Cell Index.

CCL15 and PD-L1 = test: Expression of SerpinB3-induced cytokines in THP-1 cells; format: cell-based; details: PPA 1 ng/ml
Excerpt: It has been documented that SerpinB3, in addition to inducing resistance to cell death and increased proliferation, is able to induce a reduction in tumor immunosurveillance, in particular through the increased production of cytokines such as CCL15, recently involved in the reduction of immune surveillance in hepatocellular carcinoma, and the immune checkpoint molecule PD-L1, towards which several new antitumor drugs are directed.

MDR1 and MDR2 genes = test: Multidrug resistance gene expression by real time PCR; format: cell-based; details: HepG2/SB3 cells, PPA 10 and 100 ng/ml, 24 hours
Procedure: In order to understand more fully whether the resistance to chemotherapeutic drugs induced by SerpinB3 is exclusively linked to the increased resistance to cell death following the reduced activation of the mitochondrial proapoptotic cascade, the genes involved in multiple resistance to chemotherapeutic drugs have been analysed (multidrug resistance, MDR). In particular, HepG2/SB3 and HepG2 control cells (HepG2/empty) were collected after 24 hours of treatment with PPA at the doses of 10 ng/ml and 100 ng/ml and the gene expression was analysed as follows: MDR 1, MDR 2, MRP1, MRP2, MRP3, GSTP1 by real time PCR according to standard protocols.

[4] = system: tumor development in the liver; test: DEN plus CDAA diet mouse model of obesity-associated carcinogenesis; format: in vivo
Excerpt: To better assess the role of SerpinB3 in carcinogenesis, a mouse model of obesity-associated carcinogenesis that requires a single administration of diethyl-nitrosamine (DEN) has been developed in mice with different expression of SerpinB3. The study has been performed in mice transgenic for human SerpinB3 (SerpinB3/TG) (the initial colony was kindly provided by Prof. Cassani, Tecnogen, Caserta, Italy) and in SerpinB3 knockout mice (SerpinB3/KO) (the initial colony was kindly provided by Dr. Gary Silverman and Dr. Cliff J. Luke, University of Pittsburg, Children's Hospital, Pittsburg, Pa.). Moreover wild type mice of similar age were used as controls. All animals were bred and maintained with free access to pellet food and water at the Animal Care Facility of the Experimental Surgery Division of the University of Padua.
Mice were injected with (DEN, 25 mg/kg i.p.) at the age of 2 weeks. These mice were fed at the age of 6 weeks with a choline-deficient L-amino acid-defined (CDAA) diet and part of them were sacrificed after […], while the remaining mice were sacrificed after […]. Two groups of control mice were also treated or not with PPA (weekely intraperitoneal injection of 50 ng/g of body weight) during CDAA diet. The experimental protocol was approved by the local Ethical Committee and by the Italian Ministry of Health (Authorization N. 442/2018-PR).

Compound: CN(Cc1cnc2nc(N)nc(N)c2n1)c1ccc(C(=O)N[C@@H](CCC(=O)O)C(=O)O)cc1 [Methotrexate, reference compound]
- Resistance/sensitivity to drug-induced cell death, HepG2/SB3 compared with HepG2/CTR [1]: not different

Compound: N.N.[Cl][Pt][Cl] [Cisplatin, reference compound]
- Resistance/sensitivity to drug-induced cell death, HepG2/SB3 compared with HepG2/CTR [1]: greater resistance to cell death

Compound: O=c1[nH]cc(F)c(=O)[nH]1 [5-Fluorouracil, reference compound]
- Resistance/sensitivity to drug-induced cell death, HepG2/SB3 compared with HepG2/CTR [1]: not different

Compound: CNC(=O)c1cc(Oc2ccc(NC(=O)Nc3ccc(Cl)c(C(F)(F)F)c3)cc2)ccn1 [Sorafenib, reference compound]
- Resistance/sensitivity to drug-induced cell death, HepG2/SB3 compared with HepG2/CTR [1]: greater resistance to cell death

Compound: O=C(O)CCN1CCCCC1 [PPA, 3-(1-piperidinyl)propanoic acid]
- PPA concentration up to which no cellular toxicity is observed ([2]; PPA 5-50 μg/ml): up to 5 μg/ml
- PPA doses at which cellular toxicity is highlighted (curves below the control curve) [2]: 25 to 50 µg/mL
- Constitutive SerpinB3 expression (SerpinB3; OE33 and HepG2/SB3 cells, PPA 10-100 ng/ml): reduces in a dose-dependent manner
- Reduction of the synthesis of SerpinB3 (SerpinB3; PPA concentrations of 1-10 ng/ml): about 50%
- SerpinB3 expression induced by exogenous treatment (SerpinB3; THP-1 and HT29 cells, PPA 1-100 ng/ml with recombinant SerpinB3 20-200 ng/ml, 24 hours): reduces in a dose-dependent manner
- Proliferative activity (Normalized Cell Index) [3]: reduction of the proliferative activity which has proved to be dose-dependent
- CCL15 level after stimulation with exogenous SerpinB3 (CCL15 and PD-L1): markedly reduced
- PD-L1 level after stimulation with exogenous SerpinB3 (CCL15 and PD-L1): markedly reduced
- Viability of cells with high levels of SerpinB3 treated with 5-Fluorouracil, on addition of PPA ([1]; HepG2/SB3, 5-Fluorouracil 10 μM): significant reduction of viability
- Viability of cells with high levels of SerpinB3 treated with Cisplatin, on addition of PPA ([1]; HepG2/SB3, Cisplatin 10 μM): significant reduction of viability
- Viability of cells with high levels of SerpinB3 treated with Methotrexate, on addition of PPA ([1]; HepG2/SB3, Methotrexate 10 μM): did not change
- Viability of cells with high levels of SerpinB3 treated with Sorafenib, on addition of PPA ([1]; HepG2/SB3, Sorafenib 10 μM): significant reduction of viability
- MDR1 gene expression (MDR1 and MDR2 genes): reduction of their expression in a dose-dependent manner
- MRD2 gene expression (MDR1 and MDR2 genes): reduction of their expression in a dose-dependent manner
- Tumor formation compared with mice that did not receive the compound ([4]; control (wild type) mice, DEN 25 mg/kg i.p. then CDAA diet, PPA weekly i.p. 50 ng/g body weight, preliminary results): remarkable reduction of tumor formation
- Tolerability in the experimental model ([4]; experimental model): well tolerated
